Measurements published in article doi:10.1101/2022.01.01.474692v1 (bioRxiv, 2022).
Where no end group is shown, it is not given here.

Experiment: Solubility and behaviour in water
Format: physicochemical

GNNQQNY [GNNQQNY]
behaviour of solution in pure water (solubilised in pure water, pH not lowered): tends to spontaneously aggregate
solubility in water (water, no solvent pre-treatment, solution clear and transparent): freely soluble in water
